This note sets out measurements from ChEMBL document CHEMBL5442168, “ASAP - In vitro liver microsomal stability” (2024).

Where “and” joins values, the source holds several entries; their conditions need not be identical. Equal entries are not always repeated.

What is called half-life is the time needed for the level to fall by half in the phase considered. Lower therefore signals rapid decline. For orientation: microsomal CLint means the capacity of the preparation to metabolise the compound, expressed as a volume cleared per time. Lower therefore signals greater metabolic stability.

Series [1] can be described thus: Human liver microsomal stability of compound in microsomal protein, PBS buffer pH 7.4, NADPH, glucose-6-phosphate and glucose-6-phosphate dehydrogenase media. Aliquotes were taken at 5 time points and after stopping the reaction, supernatants were analyzed using HPLC coupled with a tandem mass spectrometer. The elimination constant, half-life, and intrinsic clearance are determined as results using linear regression analysis. The assay has been performed by Enamine biological services, Bienta Ltd.The protocol is publicly available: dx.doi.org/10.17504/protocols.io.5qpvokdb9l4o/v1. The class given is ADME, microsomes, Microsome. The conditions noted are these: for half-life / microsomal CLint: liver microsomes; for Remaining / Remaining (without cofactor) / CLint / T1/2: microsomes.

Series [2] in a line: Mouse liver microsomal stability of compound in microsomal protein, PBS buffer pH 7.4, NADPH, glucose-6-phosphate and glucose-6-phosphate dehydrogenase media. Aliquotes were taken at 5 time points and after stopping the reaction, supernatants were analyzed using HPLC coupled with a tandem mass spectrometer. The elimination constant, half-life, and intrinsic clearance are determined as results using linear regression analysis. The assay has been performed by Enamine biological services, Bienta Ltd.The protocol is publicly available: dx.doi.org/10.17504/protocols.io.5qpvokdb9l4o/v1. The conditions noted are these: for half-life / microsomal CLint: liver microsomes; for Remaining / Remaining (without cofactor) / CLint / T1/2: microsomes. In kind it is ADME, microsomes, Microsome. On the technique in general: Microsomes from liver hold many membrane-bound enzymes, among them those of drug oxidation.
Wherever Remaining (without cofactor) is given: time not given here.
Wherever Remaining is given: time not given here.

Turning to `O=C(Nc1ccccc1)Nc1ccc(C(=O)NC2c3cccc(O)c3CC2C(=O)O)cc1` (stereo not given), in series [1], the half-life was 187 min, the microsomal CLint is 9 µL/min/mg, the Remaining worked out at 123% and the “Remaining (without cofactor)” value is 96%. Moreover, in series [2], the half-life is 1070 min, the microsomal CLint is 2 µL/min/mg, the Remaining is listed as 111% and the “Remaining (without cofactor)” value came out at 99%.

`CC(C)[C@H](Nc1ncnc2[nH]c(-c3cnn(CC(=O)N(C)C)c3)cc12)c1ccc2c(c1)OCCO2`: in series [1], the half-life is 3.3 min, the microsomal CLint is 500 µL/min/mg, the Remaining is 0% and the “Remaining (without cofactor)” value is on record as 115%. Further, in series [2], the half-life is 48.1 min, the microsomal CLint turned out to be 35 µL/min/mg, the Remaining is recorded as 54% and the “Remaining (without cofactor)” value is 102%.

For `CC(C)[C@@H](Nc1ncnc2[nH]ccc12)c1ccc2c(c1)S(=O)(=O)CCO2`, in series [1], the half-life came out at 91.3 min, the microsomal CLint is 18 µL/min/mg, the Remaining was 74% and the “Remaining (without cofactor)” value came to 92%. Moreover, in series [2], the half-life came out at 24.2 min, the microsomal CLint turned out to be 69 µL/min/mg, the Remaining worked out at 33% and the “Remaining (without cofactor)” value is given as 111%.

With `CC(C)[C@@H](Nc1ncnc2[nH]c(-c3cnn(C)c3C#N)cc12)c1ccc2c(c1)OCCO2`, in series [1], the half-life worked out at 22.6 min; the microsomal CLint was 74 µL/min/mg; the CLint was 47 µL/min/mg; the Remaining was 25% and 46%. For the same compound, in series [1], the “Remaining (without cofactor)” value is 111% and 101%; the T1/2 amounted to 35.4 min. In series [2], the half-life worked out at 7.7 min; the microsomal CLint worked out at 218 µL/min/mg; the CLint was determined as 129 µL/min/mg; the Remaining is 3% and 13%. In series [2], the “Remaining (without cofactor)” value is 97% and 106%; the T1/2 is recorded as 13 min.

Consider `Cn1ncc(-c2cc3c(N[C@@H](c4ccc5c(c4)OCCO5)C(C)(C)C)ncnc3[nH]2)c1C#N`, for which, in series [1], the half-life came to 19.6 min, the microsomal CLint was 85 µL/min/mg, the Remaining is on record as 22% and the “Remaining (without cofactor)” value is listed as 109%. In series [2], the half-life amounted to 8.4 min, the microsomal CLint came out at 199 µL/min/mg, the Remaining came to 4% and the “Remaining (without cofactor)” value was determined as 100%.

In the case of `Cc1nn(C)cc1-c1cc2c(N[C@@H](c3ccc4c(c3)S(=O)(=O)CCC4)C(C)C)ncnc2[nH]1`, in series [1], the half-life is 6.6 min, the microsomal CLint worked out at 251 µL/min/mg, the Remaining was found to be 2% and the “Remaining (without cofactor)” value stood at 116%. Also, in series [2], the half-life was found to be 4.3 min, the microsomal CLint was 390 µL/min/mg, the Remaining turned out to be 1% and the “Remaining (without cofactor)” value worked out at 103%.

Regarding `CC(C)[C@H](Nc1ncnc2[nH]c(-c3cnn(C)c3C#N)cc12)c1ccc2c(n1)OCCO2`, in series [1], the half-life was determined as 100 min, the microsomal CLint was determined as 17 µL/min/mg, the Remaining was 78% and the “Remaining (without cofactor)” value worked out at 116%. For the same compound, in series [2], the half-life was found to be 20.7 min, the intrinsic metabolic clearance (microsomal CLint) is 81 µL/min/mg, the Remaining turned out to be 27% and the “Remaining (without cofactor)” value was determined as 96%.

Turning to `CC(C)[C@H](Nc1ncnc2[nH]c(-c3cnn(CC(N)=O)c3)cc12)c1ccc2c(n1)OCCO2`, in series [1], the half-life was 134 min, the microsomal CLint was determined as 12 µL/min/mg, the Remaining was determined as 85% and the “Remaining (without cofactor)” value came to 90%. Also, in series [2], the half-life turned out to be 359 min, the microsomal CLint was 5 µL/min/mg, the Remaining was 99% and the “Remaining (without cofactor)” value amounted to 110%.

With `CC(C)[C@@H](Nc1ncnc2[nH]c(C(=O)N[C@@H]3CCN(C)C3)cc12)c1ccc2c(c1)S(=O)(=O)CCC2`, in series [1], the half-life was 83.8 min, the microsomal CLint came out at 20 µL/min/mg, the Remaining was found to be 70% and the “Remaining (without cofactor)” value is 106%. In series [2], the half-life amounted to 151 min, the microsomal CLint is 11 µL/min/mg, the Remaining stood at 80% and the “Remaining (without cofactor)” value turned out to be 92%.

For `CC(C)[C@H](Nc1ncnc2[nH]c(-c3cnn(CC(=O)N(C)C)c3)cc12)c1ccc2c(c1)S(=O)(=O)CCC2`, in series [1], the half-life came to 18.1 min, the microsomal CLint is 92 µL/min/mg, the Remaining was found to be 22% and the “Remaining (without cofactor)” value amounted to 97%. In series [2], the half-life stood at 13.5 min, the microsomal CLint stood at 124 µL/min/mg, the Remaining was 13% and the “Remaining (without cofactor)” value turned out to be 98%.

Turning to `COCCNC(=O)c1c[nH]c2ncnc(N[C@@H](c3ccc4c(c3)S(=O)(=O)CCC4)C(C)C)c12`, in series [1], the half-life worked out at 3.1 min, the microsomal CLint was 540 µL/min/mg, the Remaining is given as 0% and the “Remaining (without cofactor)” value stood at 106%. For the same compound, in series [2], the half-life was found to be 1.9 min, the microsomal CLint was determined as 888 µL/min/mg, the Remaining amounted to 0% and the “Remaining (without cofactor)” value stood at 99%.

On to `CC(C)(C)[C@H](Nc1ncnc2[nH]c(-c3cnn(CC(N)=O)c3)cc12)c1ccc2c(c1)OCCO2`, for which, in series [1], the half-life was 10.9 min, the microsomal CLint stood at 153 µL/min/mg, the Remaining was 9% and the “Remaining (without cofactor)” value amounted to 100%. In series [2], the half-life came to 38.3 min, the microsomal CLint was determined as 44 µL/min/mg, the Remaining is 48% and the “Remaining (without cofactor)” value is 105%.

Turning to `CC(C)(C)[C@@H](Nc1ncnc2[nH]c(-c3cnn(CC(N)=O)c3)cc12)c1ccc2c(c1)OCCO2`, in series [1], the half-life was determined as 12.6 min; the microsomal CLint was 133 µL/min/mg; the CLint amounted to 100 µL/min/mg; the Remaining is 11% and 18%. In addition, in series [1], the “Remaining (without cofactor)” value was 87% and 109%; the T1/2 is reported as 16.8 min. Besides, in series [2], the half-life was 35.2 min; the microsomal CLint was 47 µL/min/mg; the CLint was 39 µL/min/mg; the Remaining is 46% and 54%. In series [2], the “Remaining (without cofactor)” value was 107% and 106%; the T1/2 is listed as 43.1 min.

`CC(C)[C@H](CO)Nc1ncnc2[nH]ccc12`: in series [1], the half-life stood at 289 min, the microsomal CLint came to 6 µL/min/mg, the Remaining came out at 119% and the “Remaining (without cofactor)” value was 99%. For the same compound, in series [2], the half-life stood at 171 min, the microsomal CLint came to 10 µL/min/mg, the Remaining was 90% and the “Remaining (without cofactor)” value was 93%.

Turning to `CC(C)[C@@H](Nc1ncnc2[nH]c(-c3cnn(C)c3C#N)cc12)c1ccc2c(n1)OCCO2`, the “Remaining (without cofactor)” value in series [1] was 104% and 98% and 93%. For the same compound, in series [2], the CLint is 169 µL/min/mg and 139 µL/min/mg and 371 µL/min/mg; the Remaining was 6% and 10% and 1%; the “Remaining (without cofactor)” value was 110% and 101% and 99%; the T1/2 is 9.9 min and 12 min and 4.5 min.
